Tests used:
[1] = system: rat hepatocirrhosis; test: CCl4-induced hepatocirrhosis in rat, liver histology; type: in vivo, Sprague-Dawley rat; conditions: 0.2 ml orally twice a week, 13 weeks, FIG. 11, E = CCl4 + methanol extract, F = CCl4 + acanthoic acid
Excerpt: Hepatocirrhosis(hepatic sclerosis) is characterized by the fibrosis of whole liver, complete disruption of liver parenchyma by fibrous septa, and formation of regenerative nodules. It is derived mostly from a chronic hepatitis or chronic alcoholism, however, the precise causes thereof are unknown. In a hepatocirrhosis patient, the amount of cytokines, e.g., TNF-α, which is involved in inflammation and fibrosis, is in an increased state; and, therefore, the inhibition of hepatocirrhosis by acanthoic acid may be determined by the inhibitory activity to TNF-α. To induce the experimental hepatocirrhosis in accordance with the method of Nakataukasa, H., et al. as described in J. Clin. Invest., 85, 1833-1843(1990), 1.0 ml/100 g of body weight of CCl4 solution(50% CCl4 +50% corn oil) was injected intraperitoneally to 4 week old male Sprague-Dawley rats twice a week, and 0.2 ml each of methanol extract of A. koreanum Nakai and acanthoic acid was administered orally at the time of the injection of CCl4 twice a week. After 13 weeks from the start of the test, each of the rats was anesthetized with ether and the blood samples were obtained from the heart to determine serum glutamic-oxaloacetic transaminase(sGOT) value and serum glutamic-pyruvic transaminase(sGPT) value(FIG. 10). […]

[2] = system: serum glutamic-oxaloacetic transaminase (sGOT); test: CCl4-induced hepatocirrhosis in rat, serum GOT; type: in vivo, Sprague-Dawley rat; conditions: vs CCl4, DMSO and PBS control; 0.2 ml orally twice a week, 13 weeks; FIG. 10
Excerpt: Hepatocirrhosis(hepatic sclerosis) is characterized by the fibrosis of whole liver, complete disruption of liver parenchyma by fibrous septa, and formation of regenerative nodules. It is derived mostly from a chronic hepatitis or chronic alcoholism, however, the precise causes thereof are unknown. In a hepatocirrhosis patient, the amount of cytokines, e.g., TNF-α, which is involved in inflammation and fibrosis, is in an increased state; and, therefore, the inhibition of hepatocirrhosis by acanthoic acid may be determined by the inhibitory activity to TNF-α. To induce the experimental hepatocirrhosis in accordance with the method of Nakataukasa, H., et al. as described in J. Clin. Invest., 85, 1833-1843(1990), 1.0 ml/100 g of body weight of CCl4 solution(50% CCl4 +50% corn oil) was injected intraperitoneally to 4 week old male Sprague-Dawley rats twice a week, and 0.2 ml each of methanol extract of A. koreanum Nakai and acanthoic acid was administered orally at the time of the injection of CCl4 twice a week. After 13 weeks from the start of the test, each of the rats was anesthetized with ether and the blood samples were obtained from the heart to determine serum glutamic-oxaloacetic transaminase(sGOT) value and serum glutamic-pyruvic transaminase(sGPT) value(FIG. 10).

[3] = system: TNF-α production in human monocytes and macrophages; test: Inhibition of TNF-α production in human monocytes and macrophages (L929 cell lytic assay); type: cell-based; conditions: 5 μg/ml or more of acanthoic acid; silica-stimulated; FIG. 3
Procedure: The monocytes and macrophages obtained in Reference Example 1 (1) were incubated with 0.1 to 100 μg/ml of acanthoic acid for an hour and treated with 100 μg/ml of silica for 48 hours. The culture was centrifuged to obtain supernatant, which was then dialyzed against PBS. The activity of IL-1 in the dialyzate was determined in accordance with the method of Gery described in Cellular Immunology, 64, 293-303(1981) as follows. Human monocytes and macrophages were treated with acanthoic acid in accordance with the same procedures as in Example 1, and the activity of TNF-α was measured by cell lytic assay in accordance with the method of Aggarwal as described in J. Biol. Chem., 260, 2345(1985). TNF-α dependent L929 fibroblasts(ATCC CCLl) were suspended in RPMI 1640 medium containing 5% FBS and added to the wells of 96-well incubation plate in an amount of 3×10^4 cells/well. The plate was incubated at 37° C. for 2 hours to make the cells adhere to the incubation plate. […] Then, 100 μl of 33% acetic acid was added to each of the wells to release the dye, and then the O.D. of sample obtained from each of the wells was determined by using ELISA reader with 570 nm reading filter and 405 nm reference filter. The amount of released dye was calculated from the O.D. value with reference to that of the internal control group, i.e., rHu TNF-α(Genzyme).

[4] = system: experimental silicosis in rat; test: Experimental silicosis in rat, lung histology; type: in vivo, Sprague-Dawley rat; conditions: silica 50 mg intrabronchial, 10 mg orally twice a week, 12 to 18 weeks, FIG. 9
Procedure: For the purpose of confirming the in vivo anti-fibrogenic activity of acanthoic acid, an experimental silicosis model was established and the effect of acanthoic acid on the silicosis model when administered thereto was determined.
Silica was refined by removing any contaminant, e.g., Fe2 O3, therefrom in accordance with the method of Lugano as described in Am. J. Pathol., 109, 27-36(1982) as follows. Silica powder(Sigma, St. Louis, Mo.; the content of the particles having a diameter of 5 μm is at least 80%) was suspended in 1N HCl and the suspension was heated and washed with distilled water. The resultant was sterilized by dry heating at 200° C. for 2 hours and then used in the following experiment.
A 7 to 8 week-old male Sprague-Dawley rat and a 5-week old female ICR mouse were anesthetized by an intraperitoneal injection of 2 to 5 mg of ketamine chloride. The rat was injected into their bronchia with 50 mg of silica dissolved in 0.5 ml of sterilized PBS and the mouse was injected with 2 mg of silica dissolved in 0.1 ml of sterilized PBS, by using an 1 ml syringe. From the next day after the injection of silica, 10 mg of acanthoic acid was administered orally to the rat and mouse twice a week for a period ranging from 12 to 18 weeks. […]

[5] = system: rat; conditions: cited from earlier work

C=C[C@@]1(C)CC=C2C(CCC3[C@](C)(C(=O)O)CCC[C@@]23C)C1 (single isomer, unassigned; (-)) [acanthoic acid, (-)-pimara-9(11),15-diene-19-oic acid]
liver histology, effect on hepatocirrhosis [1]: the inhibitory effect on the hepatocirrhosis is lower than that of E | decrease of sGOT value [2]: 30% | inhibition of production of TNF-α [3]: at least 90% | lung histology, granuloma and fibrosis (experimental silicosis) [4]: only small-sized granulomas which is not coalesce with each other and a slight fibrosis are observed | minimum lethal dose(MLD) [5]: 1000 mg/kg

Source: patent US5900434A, “Method for inhibiting the production of interleukin-1 or tumor necrosis factor-α by administering acanthoic acid” (Korea Institute of Science and Technology, priority 1994, dated 1999)
